Counter-ions that a name gives are not always drawn.

A short description of this data set: Solubility of cariprazine forms in acetate medium. The format is physicochemical. The text has this: Different drug solubilities of cariprazine HCl and cariprazine base could be the reason to affect the release of cariprazine in the pharmaceutical compositions. […] The release profile of cariprazine in pharmaceutical composition with combo cariprazine base and cariprazine HCl were between pharmaceutical compositions B-752H-TF8-N and C-752H-TF8-N.

Consider `CN(C)C(=O)N[C@H]1CC[C@H](CCN2CCN(c3cccc(Cl)c3Cl)CC2)CC1` [Cariprazine HCl, cariprazine HCl], for which the “solubility in acetate medium (in words)” value was “higher solubility in acetate medium than cariprazine base”.

The record behind these values is patent US20230372331A1, “PHARMACEUTICAL COMPOSITION” (ANXO PHARMACEUTICAL CO., LTD., priority 2022, published 2023).
